{
  "source": "patent US20250186496A1",
  "about": "“METHODS AND COMPOSITIONS FOR CONTROLLING T CELL ACTIVATION” (The General Hospital Corporation, priority 2022, published 2025)",
  "molecules": {"B1": {"name": "mbdIL7: T cell factor: human IL-7, a CD80 hinge and transmembrane domain, and a lenalidomide-responsive zinc finger degron domain (protein)", "chain": "MLLLVTSLLLCELPHPAFLLIPEQKLISEEDLDCDIEGKDGKQYESVLMVSIDQLLDSMKEIGSNCLNNEFNFFKRHICDANKEGMFLFRAARKLRQFLKMNSTGDFDLHLLKVSEGTTILLNCTGQVKGRKPAALGEAQPTKSLEENKSLKEQKKLNDLCFLKRLLQEIKTCWNKILMGTKEHWNTTKQEHFPDNLLPSWAITLISVNGIFVICCLTYCFAPRCRERRRNERLRRESVRPVGSGSGSGSGGFNVLMVHKRSHTGERPLQCEICGFTCRQKGNLLRHIKLHTGEKPFKCHLCNYACQRRDAL"}},
  "key": {"mbdIL7-Luc": {"tested_on": "mbdIL7-Luc", "conditions": "mice", "protocol": "The mdbIL7 was tagged with luciferase (mdbTL7-Luc), so mdbTL7 expression could be monitored in vivo. Mice were injected with Jurkat cells that were transduced with mdbIL7-Luc. The Jurkat mdbTL7-Luc cells were allowed to engraft for 25 days and then pomalidomide was administered to the mice (FIG. 14A)."}, "STAT5": {"tested_on": "STAT5", "assay": "STAT5 signaling over increasing concentrations of lenalidomide", "format": "cell-based, human", "conditions": "increasing lenalidomide concentration; CAR19 cells with mbdIL7"}, "IL-7": {"tested_on": "IL-7", "assay": "Cytokine expression and soluble IL-7 in supernatant of CAR T cells cocultured with CD19+ Nalm6", "format": "cell-based", "source_text": "FIGS. 13A-13C show mbdIL7 is cleaved from the T cell surface in a state-dependent manner."}, "[1]": {"tested_on": "T cells expressing a CD19 CAR", "assay": "Expansion/activation of CAR T cells in production with or without exogenous IL-2 (population doublings)", "format": "cell-based, human", "conditions": "CAR19 mbdIL7 without exogenous IL-2 vs CAR19 cells induced with IL-2", "protocol": "CAR19 T cells and mbdTL7 CAR19 T cells were cultured with and without exogenous IL-2. […] This was shown for two different types of cancer cells, Nalm6 and K562."}},
  "data": [
    {"molecule": "Nc1cccc2c1C(=O)N(C1CCC(=O)NC1=O)C2=O", "note": "(stereo not drawn) [pomalidomide]", "values": [
      {"measurement": "decrease of mdbIL7-luc expression", "setting": "mbdIL7-Luc; 6 hours after administration of pomalidomide", "value": "more than 10 fold"},
      {"measurement": "mdbIL7-luc expression", "setting": "mbdIL7-Luc; by 24 hours after pomalidomide administration", "value": "returned to levels similar to pre-administration"}
    ]},
    {"molecule": "Nc1cccc2c1CN(C1CCC(=O)NC1=O)C2=O", "note": "(stereo not drawn) [lenalidomide]", "values": [
      {"measurement": "pSTAT5 expression", "setting": "STAT5", "value": "a decrease in pSTAT5 expression"},
      {"measurement": "effect of lenalidomide on IL-7 cleavage without antigen exposure", "setting": "IL-7; CAR19 mbdIL7 not experiencing antigen exposure", "value": "no appreciable effects"},
      {"measurement": "control of cleavage of IL-7 from the T cell surface by lenalidomide", "setting": "IL-7; CAR19 mbdIL7 with antigen exposure", "value": "effectively controlled by lenalidomide in a dose-dependent manner"}
    ]},
    {"molecule": "B1", "values": [
      {"measurement": "CAR19 cell doubling time / expansion rate", "setting": "[1]", "value": "not significantly affected"}
    ]}
  ]
}
